In patent US20260049085A1, “CYCLIC COMPOUNDS AND METHODS OF USING SAME” (SCHRÖDINGER, INC., priority 2022, published 2026):

molecular target: T1, full-length MALT1 protein His-MALT1(1-824) (Homo sapiens, UniProt Q9UDY8); assay: MALT1 protease assay (Ac-LRSR-AMC tetrapeptide substrate, fluorescence); assay type: biochemical; details: 1 nM MALT1, 25 μM Ac-LRSR-AMC, 2 h pre-incubation, 8 hr incubation at RT
T1 construct: full-length MALT1 protein His-MALT1(1-824); His (N); made in house; host or cells: baculovirus-infected insect cells
T1 sequence (Q9UDY8 1-824): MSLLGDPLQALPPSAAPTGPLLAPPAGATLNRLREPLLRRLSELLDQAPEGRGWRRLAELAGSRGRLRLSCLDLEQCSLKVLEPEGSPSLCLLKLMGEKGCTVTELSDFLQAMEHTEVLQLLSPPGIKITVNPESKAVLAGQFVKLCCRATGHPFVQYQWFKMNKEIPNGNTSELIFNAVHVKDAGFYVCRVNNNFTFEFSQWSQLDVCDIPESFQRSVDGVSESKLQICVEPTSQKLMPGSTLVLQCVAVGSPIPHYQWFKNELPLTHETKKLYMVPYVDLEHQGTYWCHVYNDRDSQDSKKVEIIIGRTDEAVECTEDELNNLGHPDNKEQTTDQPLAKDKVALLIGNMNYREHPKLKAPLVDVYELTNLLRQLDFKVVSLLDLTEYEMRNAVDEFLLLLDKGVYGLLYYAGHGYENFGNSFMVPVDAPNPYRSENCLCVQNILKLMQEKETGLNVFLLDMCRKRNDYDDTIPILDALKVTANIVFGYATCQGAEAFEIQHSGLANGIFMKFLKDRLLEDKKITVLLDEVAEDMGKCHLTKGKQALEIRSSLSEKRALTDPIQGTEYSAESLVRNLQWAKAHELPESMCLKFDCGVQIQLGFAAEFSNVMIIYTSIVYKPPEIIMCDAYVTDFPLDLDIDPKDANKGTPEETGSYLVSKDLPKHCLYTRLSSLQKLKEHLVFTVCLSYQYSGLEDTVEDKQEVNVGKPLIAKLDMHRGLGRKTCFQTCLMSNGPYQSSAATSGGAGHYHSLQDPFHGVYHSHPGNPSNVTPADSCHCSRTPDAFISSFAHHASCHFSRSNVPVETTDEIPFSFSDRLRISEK
Description: MALT1 protease activity was assessed in an in vitro assay using a tetrapeptide as substrate and full-length MALT1 protein His-MALT1(1-824) purified from baculovirus-infected insect cells.
The final assay buffer includes 1 nM of MALT1 full-length protein, 25 μM Ac-LRSR-AMC substrate, 50 mM Tris pH 7.5, 600 mM Sodium Citrate, 1 mM DTT, 1 mM EDTA, and 0.05% BSA in 384-well plate format using black microtiter square well plates (Optiplate 384-F, Perkin Elmer).
Test compounds were dissolved in 100% DMSO stock of 10 mM, with final DMSO concentration of 0.1%. Test compounds were pre-incubated with MALT1 protein for 2 h at room temperature. Substrate was added after the pre-incubation and fluorescence signal was measured using Envision at excitation 355 nm and emission 460 nm after 8 hr incubation at RT.
The fluorescence units were transformed to percentage of remaining activity by using the high control (HC, median of fluorescence signal from wells containing MALT1 protein, substrate, and DMSO) and low control (LC, median of fluorescence signal from wells with substrate only) with the formula below: […]
IC50 and Hill coefficients were obtained using Graph Pad Prism (Graph Pad software, Inc, USA) with non-linear regression analysis.

SMILES | IC50
C[C@@]1(c2cnn(C(F)F)c2)C[C@@H](C(=O)Nc2cnc(-n3nccn3)c(C(F)(F)F)c2)c2cnc3cc(F)nn3c21 (single isomer, unassigned) [Example 81] | ≥ 1000 nM
C[C@@]1(c2cnn(CC(F)(F)F)c2)C[C@@H](C(=O)Nc2cnc(-n3nccn3)c(Cl)c2)c2cnc3cc(F)nn3c21 (single isomer, unassigned) [Example 85] | ≥ 1000 nM
C[C@@]1(c2ccn(C(F)F)n2)C[C@@H](C(=O)Nc2cnc(-n3nccn3)c(Cl)c2)c2cnc3cc(F)nn3c21 (single isomer, unassigned) [Example 89] | ≥ 1000 nM
C[C@@]1(c2cnn(C(F)F)c2)C[C@@H](C(=O)Nc2cnc(OC(F)F)c(C#N)c2)c2cnc3cc(F)nn3c21 (single isomer, unassigned) [Example 93] | ≥ 1000 nM
CC1(c2cnn(C(F)F)c2)CC(C(=O)Nc2cnc(N=S3(=O)CCC3)c(Cl)c2)c2cnc3cc(F)nn3c21 (single isomer, unassigned) [Example 97] | ≥ 1000 nM
C[C@@]1(c2cnn(CC3CC3)c2)C[C@@H](C(=O)Nc2cnc(-n3nccn3)c(Cl)c2)c2cnc3cc(F)nn3c21 (single isomer, unassigned) [Example 99] | ≥ 1000 nM
C[C@@]1(c2cnn(C(F)(F)F)c2)C[C@@H](C(=O)Nc2cnc(-n3nccn3)c(Cl)c2)c2cnc3cc(F)nn3c21 (single isomer, unassigned) [Example 103] | ≥ 1000 nM
C[C@]1(c2cnn(C(F)(F)F)c2)C[C@@H](C(=O)Nc2cnc(-n3nccn3)c(Cl)c2)c2cnc3cc(F)nn3c21 (single isomer, unassigned) [Example 105] | 100 to 1000 nM
CC1(c2cnn(C3(C)CC3)c2)CC(C(=O)Nc2cnc(-n3nccn3)c(Cl)c2)c2cnc3cc(F)nn3c21 (single isomer, unassigned) [Example 107] | ≥ 1000 nM
CC1(n2cc([C@]3(C)C[C@H](C(=O)Nc4cnc(-n5nccn5)c(Cl)c4)c4cnc5cc(F)nn5c43)cn2)CC1 (single isomer, unassigned) [Example 108] | 100 to 1000 nM
CC1(n2cc([C@@]3(C)C[C@@H](C(=O)Nc4cnc(-n5nccn5)c(Cl)c4)c4cnc5cc(F)nn5c43)cn2)CC1 (single isomer, unassigned) [Example 109] | 100 to 1000 nM
C[C@@]1(c2ccn(C(F)F)n2)C[C@@H](C(=O)Nc2cnc(OC(F)F)c(C#N)c2)c2cnc3cc(F)nn3c21 (single isomer, unassigned) [Example 111] | ≥ 1000 nM
C[C@@]1(c2ccn(C(F)F)n2)C[C@H](C(=O)Nc2cnc(OC(F)F)c(C#N)c2)c2cnc3cc(F)nn3c21 (single isomer, unassigned) [Example 112] | 100 to 1000 nM
C[C@]1(c2ccn(C(F)F)n2)C[C@@H](C(=O)Nc2cnc(OC(F)F)c(C#N)c2)c2cnc3cc(F)nn3c21 (single isomer, unassigned) [Example 113] | 100 to 1000 nM
CC1(c2ccn(C(F)F)n2)CC(C(=O)Nc2cnc(-c3ncc(F)cn3)c(Cl)c2)c2cnc3cc(F)nn3c21 (single isomer, unassigned) [Example 115] | 100 to 1000 nM
CC1(c2ccn(C(F)F)n2)CC(C(=O)Nc2cnc(-c3ncc(F)cn3)c(C(F)(F)F)c2)c2cnc3cc(F)nn3c21 (single isomer, unassigned) [Example 117] | 100 to 1000 nM

The next lines start with the values.

IC50 | SMILES
100 to 1000 nM | Cn1ccc([C@]2(C)C[C@H](C(=O)Nc3cnc(-n4nccn4)c(Cl)c3)c3cnc4cc(Cl)nn4c32)n1 (single isomer, unassigned) [Example 78]
100 to 1000 nM | Cn1ccc([C@@]2(C)C[C@@H](C(=O)Nc3cnc(-n4nccn4)c(Cl)c3)c3cnc4cc(Cl)nn4c32)n1 (single isomer, unassigned) [Example 79]
< 10 nM | C[C@]1(c2cnn(C(F)F)c2)C[C@H](C(=O)Nc2cnc(-n3nccn3)c(C(F)(F)F)c2)c2cnc3cc(F)nn3c21 (single isomer, unassigned) [Example 80]
10 to 100 nM | C[C@@]1(c2cnn(C(F)F)c2)C[C@H](C(=O)Nc2cnc(-n3nccn3)c(C(F)(F)F)c2)c2cnc3cc(F)nn3c21 (single isomer, unassigned) [Example 82]
100 to 1000 nM | C[C@]1(c2cnn(C(F)F)c2)CC(C(=O)Nc2cnc(-n3nccn3)c(C(F)(F)F)c2)c2cnc3cc(F)nn3c21 (single isomer, unassigned) [Example 83]
< 10 nM | C[C@]1(c2cnn(CC(F)(F)F)c2)C[C@H](C(=O)Nc2cnc(-n3nccn3)c(Cl)c2)c2cnc3cc(F)nn3c21 (single isomer, unassigned) [Example 84]
10 to 100 nM | C[C@@]1(c2cnn(CC(F)(F)F)c2)C[C@H](C(=O)Nc2cnc(-n3nccn3)c(Cl)c2)c2cnc3cc(F)nn3c21 (single isomer, unassigned) [Example 86]
100 to 1000 nM | C[C@]1(c2cnn(CC(F)(F)F)c2)C[C@@H](C(=O)Nc2cnc(-n3nccn3)c(Cl)c2)c2cnc3cc(F)nn3c21 (single isomer, unassigned) [Example 87]
10 to 100 nM | C[C@@]1(c2ccn(C(F)F)n2)C[C@H](C(=O)Nc2cnc(-n3nccn3)c(Cl)c2)c2cnc3cc(F)nn3c21 (single isomer, unassigned) [Example 90]
100 to 1000 nM | C[C@]1(c2ccn(C(F)F)n2)C[C@@H](C(=O)Nc2cnc(-n3nccn3)c(Cl)c2)c2cnc3cc(F)nn3c21 (single isomer, unassigned) [Example 91]
10 to 100 nM | C[C@@]1(c2cnn(C(F)F)c2)C[C@H](C(=O)Nc2cnc(OC(F)F)c(C#N)c2)c2cnc3cc(F)nn3c21 (single isomer, unassigned) [Example 94]
100 to 1000 nM | C[C@]1(c2cnn(C(F)F)c2)C[C@@H](C(=O)Nc2cnc(OC(F)F)c(C#N)c2)c2cnc3cc(F)nn3c21 (single isomer, unassigned) [Example 95]
10 to 100 nM | CC1(c2cnn(C(F)F)c2)CC(C(=O)Nc2cnc(N=S3(=O)CCC3)c(Cl)c2)c2cnc3cc(F)nn3c21 (single isomer, unassigned) [Example 96]
< 10 nM | C[C@]1(c2cnn(CC3CC3)c2)C[C@H](C(=O)Nc2cnc(-n3nccn3)c(Cl)c2)c2cnc3cc(F)nn3c21 (single isomer, unassigned) [Example 98]
10 to 100 nM | C[C@@]1(c2cnn(CC3CC3)c2)C[C@H](C(=O)Nc2cnc(-n3nccn3)c(Cl)c2)c2cnc3cc(F)nn3c21 (single isomer, unassigned) [Example 100]
100 to 1000 nM | C[C@]1(c2cnn(CC3CC3)c2)C[C@@H](C(=O)Nc2cnc(-n3nccn3)c(Cl)c2)c2cnc3cc(F)nn3c21 (single isomer, unassigned) [Example 101]
10 to 100 nM | C[C@]1(c2cnn(C(F)(F)F)c2)C[C@H](C(=O)Nc2cnc(-n3nccn3)c(Cl)c2)c2cnc3cc(F)nn3c21 (single isomer, unassigned) [Example 102]
100 to 1000 nM | C[C@@]1(c2cnn(C(F)(F)F)c2)C[C@H](C(=O)Nc2cnc(-n3nccn3)c(Cl)c2)c2cnc3cc(F)nn3c21 (single isomer, unassigned) [Example 104]
10 to 100 nM | CC1(c2ccn(C(F)F)n2)CC(C(=O)Nc2cnc(-c3ncc(F)cn3)c(Cl)c2)c2cnc3cc(F)nn3c21 (single isomer, unassigned) [Example 114]
10 to 100 nM | C[C@]1(c2cnn(C(F)F)c2)C[C@H](C(=O)Nc2cnc(-c3ncncc3F)c(C(F)(F)F)c2)c2cnc3cc(F)nn3c21 (single isomer, unassigned) [Example 118]
